Assay [1] relates to yeast (Saccharomyces cerevisiae) fermentations contaminated by lactic acid bacteria (L. plantarum). Briefly: Corn mash fermentation lab test: ethanol and lactic acid at the end of fermentation. In kind it is cell-based. Conditions: 64 hours, nisin alone 5 ppm, Virginiamycin 0.5 ppm. As for the experimental part: Evaluations were conducted at the National Corn-to-Ethanol Research Center, utilizing hops acid extracts and nisin. The samples tested and their concentrations can be found in FIG. 1 and Tables 2 and 4. The tests were conducted to evaluate the effects of binary antimicrobials on ethanol production in corn mash produced under conditions that are similar to those used in the fuel ethanol industry. Two specific effects were investigated: (1) the ability of antimicrobials to affect ethanol yield and sugar conversion in fermentations that are contaminated by lactic acid bacteria, and (2) the ability of antimicrobials to control bacterial infections compared to control bacteria-free fermentations. Three 160-gram slurries of corn flour, water and enzyme (30% w/w dry solids) were made for each treatment and control (inoculated and uninoculated). The slurries were incubated for 90 minutes at 83° C., cooled to 40° C., and then inoculated with L. plantarum. Next, the slurries were dosed with antimicrobial. […] The mass of each flask was recorded after all additions were made, then sanitized fermentation traps were inserted into each flask and they were weighed again. […] Fermentation progress was monitored by weighing the fermentation flasks periodically during the 3-day incubation (at 0, 17.5, 22.5, 42.5, 48, and 64 hrs after inoculation with yeast). The concentrations of substrates (glucose, DP2, DP3, and DP4+, where “DPx” represent glucose oligomers with “x” subunits) and products (ethanol, glycerol, lactic acid, and acetic acid) were measured by HPLC at the end of fermentation. Samples were prepared for HPLC by centrifugation to remove large solids, followed by filtration through 0.45-μm syringe filters, and acidification to pH of approximately 2 by addition of sulfuric acid to a final concentration of 0.01 N. The final pH, concentrations of total dry solids and dissolved dry solids, and the density of the beer filtrate was measured were measured after incubation for 64 hours. […]

For another assay, the system named is L. plantarum. Briefly: Corn mash fermentation lab test: bacterial colony counts after antimicrobial addition. In kind it is cell-based. To be noted: nisin alone 5 ppm, virginiamycin 0.5 ppm. As for the experimental part:
Evaluations were conducted at the National Corn-to-Ethanol Research Center, utilizing hops acid extracts and nisin. The samples tested and their concentrations can be found in FIG. 1 and Tables 2 and 4. The tests were conducted to evaluate the effects of binary antimicrobials on ethanol production in corn mash produced under conditions that are similar to those used in the fuel ethanol industry. Two specific effects were investigated: (1) the ability of antimicrobials to affect ethanol yield and sugar conversion in fermentations that are contaminated by lactic acid bacteria, and (2) the ability of antimicrobials to control bacterial infections compared to control bacteria-free fermentations. Three 160-gram slurries of corn flour, water and enzyme (30% w/w dry solids) were made for each treatment and control (inoculated and uninoculated). The slurries were incubated for 90 minutes at 83° C., cooled to 40° C., and then inoculated with L. plantarum. Next, the slurries were dosed with antimicrobial. The facility dosed hops acid extracts and nisin to 250-mL Erlenmeyer flasks and samples were collected at 15, 30 and 60 minutes post antimicrobial addition. After the 3 time-point samples were collected, the pH of the mash was adjusted to <5.2 by addition of 300 μl of 5-N sulfuric acid. All enzymes, nutrients, and other amendments added to the fermentation flasks were freshly prepared before use. Urea was added as a sterile 0.2-g/ml solution to a final concentration of 500 ppm (w/w) based on the nitrogen content of the urea (w/w, based on the total mass of mash). The glucoamylase enzyme (Spirizyme Excel, Novozymes) was prepared as a 0.25-g/ml solution and added at a dose of 0.066% (w/w, based on the wet weight of corn). Sterile water was added to equalize the total solids content of each treatment. […] The mass of each flask was recorded after all additions were made, then sanitized fermentation traps were inserted into each flask and they were weighed again. […] Fermentation progress was monitored by weighing the fermentation flasks periodically during the 3-day incubation (at 0, 17.5, 22.5, 42.5, 48, and 64 hrs after inoculation with yeast). The concentrations of substrates (glucose, DP2, DP3, and DP4+, where “DPx” represent glucose oligomers with “x” subunits) and products (ethanol, glycerol, lactic acid, and acetic acid) were measured by HPLC at the end of fermentation. Samples were prepared for HPLC by centrifugation to remove large solids, followed by filtration through 0.45-μm syringe filters, and acidification to pH of approximately 2 by addition of sulfuric acid to a final concentration of 0.01 N. The final pH, concentrations of total dry solids and dissolved dry solids, and the density of the beer filtrate was measured were measured after incubation for 64 hours. […]

In another assay the test system is Weisella confusa. Conditions: cited from earlier work.
For another assay, the system named is yeast. To be noted: fermentation mixture; cited from earlier work.

For Virginiamycin, the “Average Ethanol” value in assay [1] (end of fermentation) is reported as 11.86 %, w/v. The “Average Final Lactic Acid Concentration” value in assay [1] (end of fermentation) was 0.38 %, w/w. Moreover, in assay [1] (grams ethanol per grams of dry corn, average of three flasks), the “Average Final Ethanol Yield” value is given as 0.312 g/g. In addition, the “Colony counts after antimicrobial addition” value with L. plantarum (time point 0.25 (15 minutes post addition)) was 1.00E+06; in the assay with L. plantarum (time point 0.5 (30 minutes post addition)), 1.35E+06; with L. plantarum (time point 1 (60 minutes post addition)) it was 1.95E+06. The “Colony counts at the end of fermentation” value in the assay on L. plantarum (time point 64 (64 hours)) was 6.67E+04. Besides, the “concentration required to inhibit growth of Weisella confusa” value in the assay with Weisella confusa is “over 25 mg/L”. Also, the “concentration that will suppress production of ethanol” value with yeast was “over 2 mg/L”.

(Values after patent US20160081354A1, “METHOD FOR TREATMENT OF MICROORGANISMS DURING PROPAGATION, CONDITIONING AND FERMENTATION USING HOPS ACID EXTRACTS AND NISIN” (Solenis Technologies, L.P., priority 2014, published 2016).)
